Values after ≈ are worked out from the molar mass of the structure shown. Read-outs that look alike come from different tables or passages of the source.
Assays:
Assay type in all cases: cell-based
[1] = tested on: Candida albicans ATCC 10231; assay: In vitro antifungal MIC, Candida albicans ATCC 10231; conditions: Candida albicans ATCC 10231, 35°-37° C., 48 hours
Method: (§1) The in vitro antifungal activity of the compounds of the present invention against a variety of fungiwas determined as follow: Test medium was prepared by dissolving first 5 g of dextrose and then 6.7 g of Bacto Yeast Nitrogen Base® (commercially available from Difco Laboratories) in 100 mL of distilled water. The solution was filter-sterilized and diluted 1:10 with 0.01M pH 8.0 phosphate buffer solution, and the final pH of the medium adjusted to about pH 7.0 when necessary with either 0.1N hydrochloric acid solution of 0.1N sodium hydroxide solution. […] These concentrated stock solutions were diluted to a concentration of 200 μg/mL (twice the highest concentration desired for testing) with the test medium. Amphotericin B, similarly prepared, was used as a reference antifungal agent.
(§2) The test organisms were then inoculated into test tubes containing approximately 3 to 10 mL of test medium and the test tubes incubated overnight at 37° C. A sample of each overnight culture was placed in a test tube and diluted using the test medium until a reading of 95% transmittance was obtained in a conventional UV/visible spectrophotometer set to 560 nm. The adjusted cultures were then diluted 1:50 with test medium. These diluted cultures served as the inocula for the assays which follow and were used within 15 minutes of preparation.
(§3) Next, 2-fold serial dilutions of each test compound in test medium were prepared in a 96-well microtiter plate using calibrated microdiluters attached to an automatic (hand-held) diluter (available from Dynatech Laboratories).
(§4) Using sterile calibrated droppers or a multi-point dispenser, the diluted inoculum suspension was added to each of the wells in the plate. When inoculation was complete, the microtiter tray was covered with a plastic plate sealer to minimize evaporation. After the plate had been sealed, a hole was made above each well with a sterile 26-gauge syringe needle in order to allow gas exchange. If plate sealers were not available, the microtiter trays were stacked in groups of five or less with an empty tray on top. The microtiter trays were then incubated in a humidified chamber at 35°-37° C. for 48 hours or until growth was visible in the growth control wells.
(§5) The minimum inhibitory concentration (MIC) was defined as the lowest concentration of test compound yielding no growth, a slight haze or sparsely isolated colonies on the inoculum spot as compared to the growth control containing no test compound.

Candida albicans 579A = assay: In vitro antifungal MIC, Candida albicans 579A; conditions: Candida albicans 579A, 35°-37° C., 48 hours
Method: as §1, §2, §3, §4, §5

Candida albicans CCH 442 = assay: In vitro antifungal MIC, Candida albicans CCH 442; conditions: Candida albicans CCH 442, 35°-37° C., 48 hours
Method: as §1, §2, §3, §4, §5

[2] = tested on: Candida albicans ATCC 38247; assay: In vitro antifungal MIC, Candida albicans ATCC 38247; conditions: Candida albicans ATCC 38247, 35°-37° C., 48 hours
Method: as §1, §2, §3, §4, §5

[3] = tested on: Candida albicans ATCC 62376; assay: In vitro antifungal MIC, Candida albicans ATCC 62376; conditions: Candida albicans ATCC 62376, 35°-37° C., 48 hours
Method: as §1, §2, §3, §4, §5

[4] = tested on: Candida tropicalis NRRL-Y-112; assay: In vitro antifungal MIC, Candida tropicalis NRRL-Y-112; conditions: Candida tropicalis NRRL-Y-112, 35°-37° C., 48 hours
Method: as §1, §2, §3, §4, §5

Candida kefyr ATCC 28838 = assay: In vitro antifungal MIC, Candida kefyr ATCC 28838; conditions: Candida kefyr ATCC 28838, 35°-37° C., 48 hours
Method: as §1, §2, §3, §4, §5

[5] = tested on: Torulopsis glabrata ATCC 15545; assay: In vitro antifungal MIC, Torulopsis glabrata ATCC 15545; conditions: Torulopsis glabrata ATCC 15545, 35°-37° C., 48 hours
Method: as §1, §2, §3, §4, §5

[6] = tested on: Cryptococcus albidus ATCC 34140; assay: In vitro antifungal MIC, Cryptococcus albidus ATCC 34140; conditions: Cryptococcus albidus ATCC 34140, 35°-37° C., 48 hours
Method: as §1, §2, §3, §4, §5

[7] = tested on: Aspergillus niger ATCC 16404; assay: In vitro antifungal MIC, Aspergillus niger ATCC 16404; conditions: Aspergillus niger ATCC 16404, 35°-37° C., 48 hours
Method: as §1, §2, §3, §4, §5

[8] = Kluyveromyces marxianus, ATCC28838, read-out: MIC
[9] = Nakaseomyces glabratus, ATCC15545, read-out: MIC
[10] = Naganishia albida, ATCC34140, read-out: MIC

| Compound | MIC [1] [µg/mL] | MIC (Candida albicans 579A) [µg/mL] | MIC (Candida albicans CCH 442) [µg/mL] | MIC [2] [µg/mL] | MIC [3] [µg/mL] | MIC [4] [µg/mL] | MIC (Candida kefyr ATCC 28838) [µg/mL] | MIC [5] [µg/mL] | MIC [6] [µg/mL] | MIC [7] [µg/mL] | MIC ([1]; ATCC10231, read-out: MIC) [µg/mL] | MIC (Candida albicans 579A; read-out: MIC) [µg/mL] | MIC (Candida albicans CCH 442; CCH442, read-out: MIC) [µg/mL] | MIC ([2]; ATCC38247, read-out: MIC) [µg/mL] | MIC ([3]; ATCC62376, read-out: MIC) [µg/mL] | MIC ([4]; NRRLY112, read-out: MIC) [µg/mL] | MIC (Candida kefyr ATCC 28838; [8]) [µg/mL] | MIC [5, 9] [µg/mL] | MIC [6, 10] [µg/mL] | MIC ([7]; ATCC16404, read-out: MIC) [µg/mL] |
| --- | --- | --- | --- | --- | --- | --- | --- | --- | --- | --- | --- | --- | --- | --- | --- | --- | --- | --- | --- | --- |
| 2-n-octyl-5-methyl-1,3,2-benzodithiazole-1-oxide; 2-n-octyl-6-methyl-1,3,2-benzodithiazole-1-oxide [Example 40] | 1.56 | 0.78 | 3.12 | 0.2 | 1.56 | 3.12 | 0.78 | 3.12 | 3.12 | 1.56 | – | – | – | – | – | – | – | – | – | – |
| 2-phenylmethyl-5-methyl-1,3,2-benzodithiazole-1-oxide; 2-phenylmethyl-6-methyl-1,3,2-benzodithiazole-1-oxide [Example 41] | 1.56 | 0.78 | 3.12 | 0.39 | 1.56 | 3.12 | 0.78 | 3.12 | 6.25 | 1.56 | – | – | – | – | – | – | – | – | – | – |
| [O-][S+]1c2ccccc2SN1CCc1ccccc1 (stereo not shown) [Example 1, 2-(2-Phenylethyl)-1,3,2-benzodithiazole-1-oxide] | – | – | – | – | – | – | – | – | – | – | 0.78 (≈ 2.83 µM) | 0.39 (≈ 1.42 µM) | 1.56 (≈ 5.66 µM) | 1.56 (≈ 5.66 µM) | 0.78 (≈ 2.83 µM) | 3.12 (≈ 11.3 µM) | 0.78 (≈ 2.83 µM) | 1.56 (≈ 5.66 µM) | 3.12 (≈ 11.3 µM) | 3.12 (≈ 11.3 µM) |
| CN1Sc2ccccc2[S+]1[O-] (stereo not shown) [Example 2, 2-methyl-1,3,2-benzodithiazole-1-oxide] | – | – | – | – | – | – | – | – | – | – | 1.56 (≈ 8.42 µM) | 1.56 (≈ 8.42 µM) | 1.56 (≈ 8.42 µM) | – | 0.78 (≈ 4.21 µM) | 1.56 (≈ 8.42 µM) | 1.56 (≈ 8.42 µM) | 0.78 (≈ 4.21 µM) | 3.12 (≈ 16.8 µM) | 3.12 (≈ 16.8 µM) |
| CCCN1Sc2ccccc2[S+]1[O-] (stereo not shown) [Example 3, 2-n-propyl-1,3,2-benzodithiazole-1-oxide] | – | – | – | – | – | – | – | – | – | – | 0.78 (≈ 3.66 µM) | 0.78 (≈ 3.66 µM) | 0.78 (≈ 3.66 µM) | 3.12 (≈ 14.6 µM) | 0.78 (≈ 3.66 µM) | 0.78 (≈ 3.66 µM) | 0.2 (≈ 0.938 µM) | 0.78 (≈ 3.66 µM) | 3.12 (≈ 14.6 µM) | 6.25 (≈ 29.3 µM) |
| CCCCCN1Sc2ccccc2[S+]1[O-] (stereo not shown) [Example 4, 2-n-pentyl-1,3,2-benzodithiazole-1-oxide] | – | – | – | – | – | – | – | – | – | – | 0.78 (≈ 3.23 µM) | 0.78 (≈ 3.23 µM) | 0.78 (≈ 3.23 µM) | 3.12 (≈ 12.9 µM) | 0.78 (≈ 3.23 µM) | 50 (≈ 207 µM) | 0.78 (≈ 3.23 µM) | 0.78 (≈ 3.23 µM) | 6.25 (≈ 25.9 µM) | 0.39 (≈ 1.62 µM) |
| CCCCCCCN1Sc2ccccc2[S+]1[O-] (stereo not shown) [Example 5, 2-n-heptyl-1,3,2-benzodithiazole-1-oxide] | – | – | – | – | – | – | – | – | – | – | 0.39 (≈ 1.45 µM) | 0.2 (≈ 0.742 µM) | 0.78 (≈ 2.89 µM) | 0.78 (≈ 2.89 µM) | 0.78 (≈ 2.89 µM) | 0.78 (≈ 2.89 µM) | 0.39 (≈ 1.45 µM) | 0.39 (≈ 1.45 µM) | 3.12 (≈ 11.6 µM) | 0.39 (≈ 1.45 µM) |
| CCCCCCCCN1Sc2ccccc2[S+]1[O-] (stereo not shown) [Example 6, 2-n-octyl-1,3,2-benzodithiazole-1-oxide] | – | – | – | – | – | – | – | – | – | – | 0.2 (≈ 0.706 µM) | 0.2 (≈ 0.706 µM) | 0.2 (≈ 0.706 µM) | 0.39 (≈ 1.38 µM) | 0.1 (≈ 0.353 µM) | 0.2 (≈ 0.706 µM) | 0.1 (≈ 0.353 µM) | 0.2 (≈ 0.706 µM) | 3.12 (≈ 11 µM) | 0.2 (≈ 0.706 µM) |

Reference: patent US5140018A, “1,3,2-benzodithiazole-1-oxide compounds” (Abbott Laboratories, priority 1991, dated 1992)
